Test results from paper PMC12430364, “Characterization of Human Recombinant β1,4-GalNAc-Transferase B4GALNT1 and Inhibition by Selected Compounds” (Molecules, 2025).
Blank lines part the entries; values can stand above or below the compound they belong to.

Legend:
Assay type in all cases: biochemical
[1] = target: T1, β1,4-N-acetylgalactosaminyltransferase 1 (B4GALNT1, GM2 synthase) (Homo sapiens, UniProt Q00973); assay: radiolabeled GalNAc transfer assay, purified enzyme, apparent KM
T1 construct: soluble His8-tagged, amino acids 1–25 deleted
T1 sequence (Q00973 26-533): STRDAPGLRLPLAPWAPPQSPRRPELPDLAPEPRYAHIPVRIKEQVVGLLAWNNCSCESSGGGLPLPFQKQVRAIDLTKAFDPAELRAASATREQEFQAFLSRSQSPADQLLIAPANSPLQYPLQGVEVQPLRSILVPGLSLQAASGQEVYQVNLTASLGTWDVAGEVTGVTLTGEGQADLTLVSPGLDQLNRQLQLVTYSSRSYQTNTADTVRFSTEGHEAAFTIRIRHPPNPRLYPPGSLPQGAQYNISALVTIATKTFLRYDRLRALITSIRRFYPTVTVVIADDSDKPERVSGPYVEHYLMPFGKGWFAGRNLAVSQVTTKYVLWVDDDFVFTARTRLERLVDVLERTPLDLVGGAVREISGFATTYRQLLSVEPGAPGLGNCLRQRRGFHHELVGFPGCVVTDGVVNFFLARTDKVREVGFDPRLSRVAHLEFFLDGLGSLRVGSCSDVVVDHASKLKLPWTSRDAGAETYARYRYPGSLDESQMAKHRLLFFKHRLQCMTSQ

[2] = target: T1, β1,4-N-acetylgalactosaminyltransferase 1 (B4GALNT1, GM2 synthase); assay: % inhibition at […], radiolabeled GalNAc transfer assay, purified enzyme
[3] = target: T1, β1,4-N-acetylgalactosaminyltransferase 1 (B4GALNT1, GM2 synthase); assay: radiolabeled UDP-[3H]GalNAc transfer to GM3, purified enzyme; […] inhibition at […] and IC50

Km [1]: 500 µM
Compound: GM3

inhibition at 1000 µM [2]: 44%
Compound: CCCC(=O)N[C@@H]1[C@@H](O)[C@H](O)[C@@H](CO)O[C@H]1Sc1ccc2ccccc2c1 [compound 612, 2-naphthyl 2-butanamido-2-deoxy-1-thio-β-D-glucopyranoside]

Compound: CCCCCCCCCCC[n+]1ccn(CCCCCCn2cc[n+](CCCCCCCCCCC)c2)c1 [QT163]
IC50 [3]: 200 µM
